Laboratory results taken from publication PMC6943638, “Lectin PLL3, a Novel Monomeric Member of the Seven-Bladed β-Propeller Lectin Family” (Molecules, 2019).
Like-named read-outs stand apart in the source and are kept apart here.

Experiments:
[1] = target: T1, PLL3 (Photorhabdus laumondii subsp. laumondii, UniProt Q7N8I7); assay: Surface plasmon resonance, apparent KD on immobilized glycans; assay type: binding; conditions: SPR, immobilized glycan, PLL3 100 to 0.195 μM, steady-state
Protocol: (§1) SPR experiments were performed in a BIAcore T200 instrument (GE Healthcare, UK) using a four-channel sensor chip CM5 with a carboxymethyldextran surface layer (GE Healthcare, UK). Saccharides were immobilized on the chip surface using the procedure as described elsewhere. Immobilization was performed in the HBS buffer (10 mM HEPES, 150 mM NaCl, 0.05% Tween 20, pH 7.5) at a flow rate of 10 μL min^−1. For OMeDis immobilization, the surface of the channel was activated with N-hydroxysuccinimide/N-ethyl-N-(3-dimethylaminopropyl)carbodiimide solution (NHS/EDC) and subsequently OMeDis covalently modified by linker (-O-(p-C6H4)-OCH2CH2NH2) in HBS was injected. The final response of immobilized OMeDis was 136 RU. Non-reacted groups were blocked by 1 M ethanolamine/HCl (pH 8.5). A corresponding blank channel was prepared the same way, omitting the ligand injection. […] Biotinylated α-L-fucoside was injected onto this channel to the final response of 63 RU. A corresponding blank channel was prepared the same way without the injection of biotinylated fucoside.
(§2) Between individual injections, the channels were regenerated by 50 mM NaOH for 30 s. The experiment was run at a flow rate of 30 μL min^−1 and a contact time of 120 s. The concentration of PLL3 ranged from 100 μM to 0.195 μM. An apparent KD was calculated in BIAevaluation software using the steady-state approach.

[2] = system: PLL3; assay: as above; assay type: binding, Photorhabdus laumondii subsp. laumondii; conditions: PLL3 compared with PLL2 and PHL of ref 17
Protocol: as §1, §2

[3] = target: T1, PLL3; assay: Hemagglutination inhibition assay (PLL3 with erythrocytes of blood group O); assay type: cell-based; conditions: PLL3 50 μM; for minimal inhibitory concentration (MIC) of hemagglutination: erythrocytes of blood group O 10% (v/v); for inhibition of hemagglutination: blood group O erythrocytes, saccharide 100 to 0.1 mM
Protocol: For the hemagglutination inhibition assay, the PLL3 was mixed with serially diluted saccharides (L-fucose, αMeFuc, D-galactose, D-glucose, and 3-O-methyl-D-glucose) dissolved in PBS buffer, and mixtures were incubated for 15 min at room temperature. Subsequently, erythrocytes of blood group O were added into the mixture with following incubation for 15 min. The final concentration was 50 μM for the PLL3 and 10% (v/v) for erythrocytes. Concentrations of L-fucose and αMeFuc ranged from 50 to 0.05 mM. Concentrations of D-galactose, D-glucose, and 3-O-methyl-D-glucose ranged from 100 to 0.1 mM. Each sample was observed under the optical microscope (Olympus IX81 with camera DP72; 200x magnification; SW CellSens Dimension, Olympus corporation, Tokyo, Japan).

[4] = target: T1, PLL3; assay: SPR inhibition test on immobilized OMeDis; assay type: binding
Protocol: as §1
SPR inhibition tests were carried out on a channel with immobilized OMeDis using the same buffer and flow rate values as those for the binding studies. The final concentration of the lectin was 20 μM. PLL3 was mixed with serially diluted saccharides (50–0.05 mM for L-fucose; 12.5–0.013 mM for αMeFuc; 200–0.2 mM for 3-O-methyl-D-glucose; and 400–0.4 mM for D-glucose and D-galactose) and injected onto the chip. The lectin sample without ligand was used as a control with 0% inhibition effect. The response of blank channel as well as the response of corresponding saccharides were subtracted from the response of lectin bound to the OMeDis surface at equilibrium. A final response was plotted against the concentration of inhibitor in order to determine IC50 (concentration of inhibitor resulting in 50% inhibition of binding).

[5] = target: T1, PLL3; assay: Isothermal titration calorimetry (ITC); assay type: binding
Protocol: ITC experiments were carried out using an AutoITC200 calorimeter (Malvern, UK) at 25 °C. The purified lectin was dialyzed against 20 mM Tris/HCl, 150 mM NaCl, pH 7.5 buffer before measurements. Individual ligands (L-fucose, αMeFuc, D-galactose, D-glucose, 3-O-methyl-D-glucose, and decavalent fucosylated glycoclusters 4a and 4b) were dissolved in the same buffer. PLL3 (100 μM) in the cell was titrated by the successive addition (2.0 μL) of the ligand in the syringe (20 mM for monosaccharides, 1 mM for multivalent fucosides). Experiments with monosaccharides were performed at stirring 750 rpm with a reference power of 10 μcal s^−1. Experiments with multivalent fucosides were performed at stirring 500 rpm with a reference power of 6 μcal s^−1. Titrations were carried out in three independent measurements for each ligand. Blank measurements were subtracted from collected data. For multivalent fucosides, two blank measurements were performed: titration of the buffer into the cell with PLL3 and titration of the buffer into the buffer. For monosaccharides, the additional blank measurement, the titration of a given ligand into the cell with buffer, was performed. The data were evaluated in software MicroCal PEAQ-ITC Analysis Software (Malvern, UK) by using the global fit method. Integrated heat effects were analyzed by nonlinear regression.

[6] = target: T1, PLL3; assay: Glycan array screening with DyLight 488-labeled PLL3; assay type: binding; conditions: PLL3 200 μg mL^-1, hexaplicates
Excerpt: Purified PLL3 protein was labeled with DyLight 488 NHS Ester (Thermo Scientific, Rockford, MI, USA) according to the manual instructions of the manufacturer. The unbound dye was removed from the solution using the Zeba Spin Desalting Column (Thermo scientific). The labeled lectin was used for glycan array screening using a glycan microarray chip (Semiotik, Moscow, Russia; chip format OSPS280715; slide number 10085636) containing over 600 mammalian and bacterial glycans (all in hexaplicates). The glycan microarray chip was incubated in 1.0 mL of PBS buffer supplemented with 0.1% (v/v) Tween 20 and placed in a humid chamber for 15 min (37 °C, 40 rpm). Then, the buffer was replaced by 0.5 mL PLL3 (200 μg mL^−1) diluted in PBS buffer with 0.1% Tween 20 and 1% (w/v) bovine serum albumin (Serva, Germany). After incubation (90 min, 37 °C, 40 rpm), the chip was washed by decreasing concentrations of PBS with 0.1% Tween 20, followed by multiple immersions in ultrapure water. Subsequently, the chip was dried by air blow. Fluorescence was read with a scanner InnoScan 1100 AL (Innopsys, Carbonne, France) with a 488 nm laser at 20 °C. The data were analyzed with the software Mapix 8.2.2 and an online glycan chip converter (Semiotik, https://rakitko.shinyapps.io/semiotik). The relative fluorescent response of PLL3 binding was calculated from hexaplicates of each glycan immobilized onto the chip. Only glycans with a response three or more times higher than trehalose and concurrently with a signal-to-noise ratio higher than two were considered as significant binders.

[7] = stoichiometry fixed to 3, 25 °C, read-out: KD
[8] = stoichiometry fixed to 4, 25 °C, read-out: KD
[9] = stoichiometry fixed to 5, 25 °C, read-out: KD
[10] = stoichiometry fixed to 6, 25 °C, read-out: KD
[11] = stoichiometry fixed to 7, 25 °C, read-out: KD

T1 sequence (Q7N8I7 entry or part of it): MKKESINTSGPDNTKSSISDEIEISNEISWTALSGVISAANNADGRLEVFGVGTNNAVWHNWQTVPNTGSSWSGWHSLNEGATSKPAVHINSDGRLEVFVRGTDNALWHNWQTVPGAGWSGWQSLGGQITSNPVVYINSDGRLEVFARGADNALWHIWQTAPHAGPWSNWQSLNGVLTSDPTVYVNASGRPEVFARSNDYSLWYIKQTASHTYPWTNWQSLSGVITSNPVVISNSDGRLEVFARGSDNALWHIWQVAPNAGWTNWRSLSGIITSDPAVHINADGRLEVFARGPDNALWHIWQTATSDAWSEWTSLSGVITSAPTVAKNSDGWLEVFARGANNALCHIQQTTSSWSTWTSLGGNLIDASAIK

Molecule	Kd [5, 7] [mM]	Kd [5, 8] [mM]	Kd [5, 9] [mM]	Kd [5, 10] [mM]	Kd [5, 11] [mM]	inhibition of hemagglutination [3]	also measured
3,6-O-Me2-Glcβ1-4(2,3-O-Me2)Rhaα [OMeDis]	–	–	–	–	–	–	Kd [1]: 0.607 ± 0.046 mM; interaction with immobilized OMeDis, fold weaker than for PLL2 and PHL [2]: 10^5 fold
CO[C@@H]1O[C@@H](C)[C@@H](O)[C@@H](O)[C@@H]1O [methyl α-L-fucopyranoside]	0.7 ± 0.02	0.7 ± 0.03	0.6 ± 0.03	0.6 ± 0.03	0.6 ± 0.03	–	minimal inhibitory concentration (MIC) of hemagglutination [3]: 780 µM; IC50 ([4]; inhibition of interaction between PLL3 (20 μM) and immobilized OMeDis, read-out: IC50): 1.04 ± 0.05 mM
CO[C@@H]([C@H](O)[C@H](O)CO)[C@@H](O)C=O [3-O-methyl-D-glucose]	11.3 ± 1.55	11.1 ± 1.5	10.9 ± 1.5	10.7 ± 1.5	10.4 ± 1.45	did not inhibit hemagglutination	IC50 [4]: 26.4 ± 2.84 mM; Kd ([5]; text summary over stoichiometry fixed 3 to 7, read-out: KD values): > 10.4 mM
α-L-fucoside	–	–	–	–	–	–	glycan array response relative to trehalose (negative control) [6]: ~20 fold; Kd [1]: 0.322 ± 0.086 mM
O=C[C@H](O)[C@@H](O)[C@@H](O)[C@H](O)CO [D-galactose]	–	–	–	–	–	did not inhibit hemagglutination	Kd ([5]; KD, stoichiometry fixed to 3, 25 °C): 2.8 ± 0.14 mM; Kd ([5]; KD, stoichiometry fixed to 4, 25 °C): 2.7 ± 0.14 mM; Kd ([5]; KD, stoichiometry fixed to 5, 25 °C): 2.6 ± 0.13 mM; Kd ([5]; KD, stoichiometry fixed to 6, 25 °C): 2.5 ± 0.13 mM; Kd ([5]; KD, stoichiometry fixed to 7, 25 °C): 2.3 ± 0.13 mM
C[C@H](O)[C@@H](O)[C@@H](O)[C@H](O)C=O [L-fucose]	3.4 ± 0.12	3.3 ± 0.12	3.2 ± 0.11	3.1 ± 0.1	3 ± 0.09	–	minimal inhibitory concentration (MIC) of hemagglutination [3]: 1560 µM; IC50 [4]: 2.51 ± 0.09 mM
OC[C@H]1OC(O)[C@H](O)[C@@H](O)[C@@H]1O (stereo partly drawn) [D-glucose]	3.7 ± 0.08	3.6 ± 0.08	3.4 ± 0.08	3.3 ± 0.07	3.1 ± 0.07	did not inhibit hemagglutination	inhibitory effect ([4]; PLL3 20 μM, immobilized OMeDis, highest concentration used 400 mM): did not exhibit any inhibitory effect
